Key:
Type in all cases: in vivo
Spodoptera littoralis = Spodoptera littoralis (Egyptian Cotton Leafworm) cotton leaf disc spray test; details: foliar, 72 h, 200 ppm spray on cotton leaf discs, L1 larvae, mortality, feeding behavior, growth regulation 3 DAT
Heliothis virescens = Heliothis virescens (Tobacco Budworm) egg test on artificial diet; details: 96 h, 200 ppm (concentration in well 18 ppm), eggs 0-24 h old on artificial diet, 4 days, egg mortality, larval mortality, growth regulation
Plutella xylostella = Plutella xylostella (Diamond Back Moth) artificial diet MTP test; details: 144 h, 200 ppm (concentration in well 18 ppm), L2 larvae, 6 days, larval mortality, growth regulation
Tetranychus urticae = Tetranychus urticae (Two-Spotted Spider Mite) bean leaf disc spray test; details: foliar, 192 h, 200 ppm spray on bean leaf discs, mite populations of mixed ages, 8 days, egg, larval and adult mortality, read-out: control of Tetranychus urticae
Myzus persicae = Myzus persicae (Green Peach Aphid) sunflower leaf disc spray test; details: foliar, 144 h, 200 ppm spray on sunflower leaf discs, aphid population of mixed ages, 6 DAT, mortality
Diabrotica balteata = Diabrotica balteata (Corn Root Worm) artificial diet MTP test; details: 120 h, 200 ppm (concentration in well 18 ppm), L2 larvae, 5 days, larval mortality, growth regulation
Thrips tabaci = Thrips tabaci (Onion Thrips) sunflower leaf disc spray test; details: foliar, 168 h, 200 ppm spray on sunflower leaf discs, population of mixed ages, 7 days, mortality

Measured: pest or weed control at 200 ppm

COc1c(NC(=O)c2ccc(F)cc2Cl)cccc1C(=O)Nc1c(Cl)cc(C(F)(C(F)(F)F)C(F)(F)C(F)(F)F)cc1Br (centres unmarked) [B2, N-[2-bromo-6-chloro-4-(1,2,2,3,3,3-hexafluoro-1-trifluoromethylpropyl)phenyl]-3-(4-fluoro-2-chlorobenzoylamino)-2-methoxybenzamide]
not listed: Diabrotica balteata | Thrips tabaci
≥ 80%: all other assays above

COc1c(NC(=O)c2ccccc2Cl)cccc1C(=O)Nc1c(Cl)cc(C(F)(C(F)(F)F)C(F)(F)C(F)(F)F)cc1Br (centres unmarked) [B5]
not listed: Thrips tabaci
≥ 80%: all other assays above

COc1c(NC(=O)c2ccc(C#N)cc2)cccc1C(=O)Nc1c(Cl)cc(C(F)(C(F)(F)F)C(F)(F)C(F)(F)F)cc1Br (centres unmarked) [B6]
not listed: Diabrotica balteata | Thrips tabaci
≥ 80%: all other assays above

COc1c(NC(=O)c2ccc([N+](=O)[O-])cc2)cccc1C(=O)Nc1c(Cl)cc(C(F)(C(F)(F)F)C(F)(F)C(F)(F)F)cc1Br (centres unmarked) [B7]
not listed: Diabrotica balteata | Thrips tabaci
≥ 80%: all other assays above

COc1c(NC(=O)c2ccc(C)cc2)cccc1C(=O)Nc1c(Cl)cc(C(F)(C(F)(F)F)C(F)(F)C(F)(F)F)cc1Br (centres unmarked) [B8]
not listed: Diabrotica balteata | Thrips tabaci
≥ 80%: all other assays above

COc1c(NC(=O)c2ccc(C(F)(F)F)cc2)cccc1C(=O)Nc1c(Cl)cc(C(F)(C(F)(F)F)C(F)(F)C(F)(F)F)cc1Br (centres unmarked) [B15]
not listed: Diabrotica balteata | Thrips tabaci
≥ 80%: all other assays above

COc1c(NC(=O)c2ccc(F)cc2)cccc1C(=O)Nc1c(Cl)cc(C(F)(C(F)(F)F)C(F)(F)C(F)(F)F)cc1Br (centres unmarked) [B19]
not listed: Diabrotica balteata | Thrips tabaci
≥ 80%: all other assays above

COc1c(NC(=O)c2cccnc2)cccc1C(=O)Nc1c(Cl)cc(C(F)(C(F)(F)F)C(F)(F)C(F)(F)F)cc1Br (centres unmarked) [B37]
not listed: Heliothis virescens | Tetranychus urticae
≥ 80%: all other assays above

COc1c(NC(=O)c2cccs2)cccc1C(=O)Nc1c(Cl)cc(C(F)(C(F)(F)F)C(F)(F)C(F)(F)F)cc1Br (centres unmarked) [B44]
not listed: Tetranychus urticae
≥ 80%: all other assays above

COc1c(NC(=O)c2cccnc2SC)cccc1C(=O)Nc1c(Cl)cc(C(F)(C(F)(F)F)C(F)(F)C(F)(F)F)cc1Br (centres unmarked) [B45]
not listed: Tetranychus urticae
≥ 80%: all other assays above

COc1cc(C(=O)Nc2cccc(C(=O)Nc3c(Cl)cc(C(F)(C(F)(F)F)C(F)(F)C(F)(F)F)cc3Br)c2OC)on1 (centres unmarked) [B89]
not listed: Tetranychus urticae
≥ 80%: all other assays above

COc1c(NC(=O)c2csnc2C)cccc1C(=O)Nc1c(Cl)cc(C(F)(C(F)(F)F)C(F)(F)C(F)(F)F)cc1Br (centres unmarked) [B98]
not listed: Thrips tabaci
≥ 80%: all other assays above

COc1c(NC(=O)c2ccc(C)s2)cccc1C(=O)Nc1c(Cl)cc(C(F)(C(F)(F)F)C(F)(F)C(F)(F)F)cc1Br (centres unmarked) [B137]
not listed: Tetranychus urticae
≥ 80%: all other assays above

COc1c(NC(=O)c2c(F)cc(F)cc2F)cccc1C(=O)Nc1c(Cl)cc(C(F)(C(F)(F)F)C(F)(F)C(F)(F)F)cc1Br (centres unmarked) [B189, N-{3-[2-Bromo-6-chloro-4-(1,2,2,3,3,3-hexafluoro-1-trifluoromethylpropyl)-phenylcarbamoyl]-2-methoxyphenyl}-2,4,6-trifluorobenzamide]
not listed: Diabrotica balteata | Thrips tabaci
≥ 80%: all other assays above

COc1c(NC(=O)c2ccc(F)cc2Cl)cccc1C(=O)Nc1c(Cl)cc(C(F)(C(F)(F)F)C(F)(F)C(F)(F)F)cc1Cl (centres unmarked) [C1, N-[2,6-dichloro-4-(1,2,2,3,3,3-hexafluoro-1-trifluoromethylpropyl)phenyl]-3-(4-fluoro-2-chlorobenzoylamino)-2-methoxybenzamide]
not listed: Tetranychus urticae
≥ 80%: all other assays above

COc1c(NC(=O)c2ccccc2F)cccc1C(=O)Nc1c(Cl)cc(C(F)(C(F)(F)F)C(F)(F)F)cc1Cl [E1]
not listed: Plutella xylostella | Tetranychus urticae
≥ 80%: all other assays above

COc1c(NC(=O)c2ccccc2C)cccc1C(=O)Nc1c(Cl)cc(C(F)(C(F)(F)F)C(F)(F)F)cc1Cl [E2]
not listed: Plutella xylostella | Tetranychus urticae
≥ 80%: all other assays above

COc1c(NC(=O)c2ccc(C)cc2)cccc1C(=O)Nc1c(Cl)cc(C(F)(C(F)(F)F)C(F)(F)F)cc1Cl [E6]
not listed: Tetranychus urticae
≥ 80%: all other assays above

COc1c(NC(=O)c2ccc(OC(F)(F)F)cc2)cccc1C(=O)Nc1c(Cl)cc(C(F)(C(F)(F)F)C(F)(F)F)cc1Cl [E11]
not listed: Tetranychus urticae
≥ 80%: all other assays above

COc1c(NC(=O)c2ccccc2)cccc1C(=O)Nc1c(Cl)cc(C(F)(C(F)(F)F)C(F)(F)F)cc1Cl [E16]
not listed: Tetranychus urticae
≥ 80%: all other assays above

COc1c(NC(=O)c2cccc(F)c2F)cccc1C(=O)Nc1c(Cl)cc(C(F)(C(F)(F)F)C(F)(F)F)cc1Cl [E21]
not listed: Tetranychus urticae
≥ 80%: all other assays above

COc1c(NC(=O)c2c(F)cc(F)cc2F)cccc1C(=O)Nc1c(Cl)cc(C(F)(C(F)(F)F)C(F)(F)F)cc1Br [G3]
not listed: Thrips tabaci
≥ 80%: all other assays above

COc1c(NC(=O)c2c(F)cc(C#N)cc2F)cccc1C(=O)Nc1c(Cl)cc(C(F)(C(F)(F)F)C(F)(F)F)cc1Br [G4]
not listed: Thrips tabaci
≥ 80%: all other assays above

COc1c(NC(=O)c2ccc(F)cc2Cl)cccc1C(=O)Nc1c(Cl)cc(C(F)(C(F)(F)F)C(F)(F)F)cc1Br [G5]
not listed: Thrips tabaci
≥ 80%: all other assays above

COCc1cc(C(F)(C(F)(F)F)C(F)(F)C(F)(F)F)cc(Cl)c1NC(=O)c1cccc(NC(=O)c2ccc(F)cc2Cl)c1OC (centres unmarked) [H25]
not listed: Spodoptera littoralis | Tetranychus urticae
≥ 80%: all other assays above

COCc1cc(C(F)(C(F)(F)F)C(F)(F)C(F)(F)F)cc(Br)c1NC(=O)c1cccc(NC(=O)c2c(F)cc(F)cc2F)c1OC (centres unmarked) [I2]
not listed: Spodoptera littoralis | Tetranychus urticae
≥ 80%: all other assays above

COCc1cc(C(F)(C(F)(F)F)C(F)(F)C(F)(F)F)cc(Br)c1NC(=O)c1cccc(NC(=O)c2ccc(F)cc2Cl)c1OC (centres unmarked) [I25]
not listed: Spodoptera littoralis | Tetranychus urticae
≥ 80%: all other assays above
